According to patent publication US11439641B2, “Pyrimidine JAK inhibitors for the treatment of skin diseases” (THERAVANCE BIOPHARMA R&D IP, LLC, priority 2019, dated 2022):
≈ marks a conversion by molar mass, not a printed value.

Columns and labels:
JAK1 = JAK1 (Homo sapiens (Human), UniProt P23458); test: Biochemical JAK and Tyk2 Kinase Assays (LanthaScreen), JAK1; settings: 25 μM ATP (Km), pIC50 converted to pKi by Cheng-Prusoff
Tyk2 = Tyk2 (Homo sapiens (Human), UniProt P29597); test: Biochemical JAK and Tyk2 Kinase Assays (LanthaScreen), Tyk2; settings: 10 μM ATP (Km), pIC50 converted to pKi by Cheng-Prusoff
[1] = tested on: IL-22 suppressed Filaggrin expression in normal human epidermal keratinocytes; test: Recovery of IL-22 Suppressed Filaggrin in Normal Human Epidermal Keratinocytes; format: cell-based; settings: IL-22 50 ng/mL, real-time PCR
Protocol: Assay 7: Recovery of IL-22 Suppressed Filaggrin in Normal Human Epidermal Keratinocytes
IL-22 is known to inhibit the expression of terminal differentiation genes, such as Filaggrin. The recovery level of test compound for interleukin-22 (IL-22) suppressed Filaggrin expression was measured in the normal human epidermal keratinocytes (ATCC) using real-time PCR.
Primary epidermal keratinocytes were cultured in a 37° C., 5% CO2 humidified incubator in dermal cell basal medium (ATCC) supplemented with keratinocyte growth kit (ATCC) and 1× Pen/Strep (Life Technologies). Cells were seeded at 5,000 cells/well in BioCoat 96-well plates (Corning) with 100 μl and incubated at 37° C., 5% CO2 for 3 to 4 days till 100% confluency. Then, the medium was removed and replaced with 1504 of medium containing does-response of test compounds. Compounds were serially diluted in DMSO and then diluted another 1000-fold in media to bring the final DMSO concentration to 0.1%. On day 1 of the assay, cells were incubated with test compounds at 37° C. for 1 h, and followed by the addition of followed by the addition of IL-22 (R&D Systems; final concentration 50 ng/mL) in pre-warmed media (50 μL) for 4 days. The medium with test compounds and IL-22 was changed once on day 3. On day 5, cells were washed with 1×PBS (Gibco) and lysed with 50 μl of Lysis Buffer containing 0.5 μl DnaseI from TaqMan® Gene Expression Cells-to-Ct™ Kit (Life Technologies). After incubation at room temperature (RT) for 5 minutes, 5 μl of Stop solution from the kit was added and then incubated at RT for 2 minutes. 11.25 μl of lysate, 12.5 μl of 2×RT buffer and 1.25 μl 20×RT enzyme mix from the kit were mixed. The reverse transcription reaction was carried out by incubating the mixture at 37° C. for 60 minutes and then 95° C. for 5 minutes to generate cDNA. To assemble the PCR cocktail, each reaction contained 10 μl of 2× TaqMan® Gene Expression Mater Mix, 1 μl of 2× TaqMan® Filaggrin Gene Expression Assay (Life Technologies), 1 μl of 2× TaqMan® UBC Gene Expression Assay (Life Technologies), 4 μl of nuclease-free water and 4 μl of cDNA. PCR reactions were done on StepOnePlus™ (Life Technologies) with cycling conditions of 50° C. for 2 minutes, 95° C. for 10 minutes followed by 40 cycles of 95° C. for 15 seconds and 60° C. for 1 minute. Fluorescence signals were captured after each cycle. Comparative CT method was used to quantify gene expression with cells without IL-22 and test compounds as baseline control.

Aqueous Solubility Assay = settings: PBS buffer pH 7.4; maximum upper limit 1,000 μM
[2] = Solubility Assay in Organic Excipients; settings: maximum upper limit 20,000 μM; for Solubility in MCT (mg/mL): medium chain triglycerides (MCT)
physchem = settings: thermodynamic from solid

Chain of JAK1 (P23458 whole entry): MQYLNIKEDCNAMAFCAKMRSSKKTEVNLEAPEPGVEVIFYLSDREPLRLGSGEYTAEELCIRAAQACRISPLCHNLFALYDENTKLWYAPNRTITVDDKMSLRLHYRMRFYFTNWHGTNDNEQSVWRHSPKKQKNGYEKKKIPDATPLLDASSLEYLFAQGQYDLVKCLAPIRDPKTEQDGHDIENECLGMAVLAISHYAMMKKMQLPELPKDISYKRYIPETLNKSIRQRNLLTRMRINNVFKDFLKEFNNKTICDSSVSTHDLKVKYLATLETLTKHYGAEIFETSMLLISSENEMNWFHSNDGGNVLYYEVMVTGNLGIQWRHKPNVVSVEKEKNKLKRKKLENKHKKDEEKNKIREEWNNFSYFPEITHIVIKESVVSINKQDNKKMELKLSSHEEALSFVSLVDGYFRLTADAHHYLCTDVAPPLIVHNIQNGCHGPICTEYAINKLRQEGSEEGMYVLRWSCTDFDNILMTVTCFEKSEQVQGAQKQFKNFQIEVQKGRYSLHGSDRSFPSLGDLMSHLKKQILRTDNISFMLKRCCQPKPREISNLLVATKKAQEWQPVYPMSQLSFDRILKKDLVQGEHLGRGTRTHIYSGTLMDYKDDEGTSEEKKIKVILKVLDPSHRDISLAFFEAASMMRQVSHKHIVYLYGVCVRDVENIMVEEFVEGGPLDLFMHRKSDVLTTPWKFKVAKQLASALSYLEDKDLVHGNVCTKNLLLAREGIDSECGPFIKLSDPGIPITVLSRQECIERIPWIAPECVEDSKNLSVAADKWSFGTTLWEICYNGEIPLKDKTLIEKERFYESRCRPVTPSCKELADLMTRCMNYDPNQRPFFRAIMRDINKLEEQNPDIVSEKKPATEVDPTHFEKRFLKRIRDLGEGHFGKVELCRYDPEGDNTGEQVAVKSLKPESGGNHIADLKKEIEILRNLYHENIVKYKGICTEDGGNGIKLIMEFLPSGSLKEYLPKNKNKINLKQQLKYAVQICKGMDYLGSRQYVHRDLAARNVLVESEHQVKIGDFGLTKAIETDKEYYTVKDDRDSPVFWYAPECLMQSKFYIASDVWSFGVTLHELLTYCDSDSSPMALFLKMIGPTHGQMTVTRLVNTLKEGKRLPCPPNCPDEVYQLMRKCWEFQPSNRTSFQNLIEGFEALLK
Chain of Tyk2 (P29597 whole entry): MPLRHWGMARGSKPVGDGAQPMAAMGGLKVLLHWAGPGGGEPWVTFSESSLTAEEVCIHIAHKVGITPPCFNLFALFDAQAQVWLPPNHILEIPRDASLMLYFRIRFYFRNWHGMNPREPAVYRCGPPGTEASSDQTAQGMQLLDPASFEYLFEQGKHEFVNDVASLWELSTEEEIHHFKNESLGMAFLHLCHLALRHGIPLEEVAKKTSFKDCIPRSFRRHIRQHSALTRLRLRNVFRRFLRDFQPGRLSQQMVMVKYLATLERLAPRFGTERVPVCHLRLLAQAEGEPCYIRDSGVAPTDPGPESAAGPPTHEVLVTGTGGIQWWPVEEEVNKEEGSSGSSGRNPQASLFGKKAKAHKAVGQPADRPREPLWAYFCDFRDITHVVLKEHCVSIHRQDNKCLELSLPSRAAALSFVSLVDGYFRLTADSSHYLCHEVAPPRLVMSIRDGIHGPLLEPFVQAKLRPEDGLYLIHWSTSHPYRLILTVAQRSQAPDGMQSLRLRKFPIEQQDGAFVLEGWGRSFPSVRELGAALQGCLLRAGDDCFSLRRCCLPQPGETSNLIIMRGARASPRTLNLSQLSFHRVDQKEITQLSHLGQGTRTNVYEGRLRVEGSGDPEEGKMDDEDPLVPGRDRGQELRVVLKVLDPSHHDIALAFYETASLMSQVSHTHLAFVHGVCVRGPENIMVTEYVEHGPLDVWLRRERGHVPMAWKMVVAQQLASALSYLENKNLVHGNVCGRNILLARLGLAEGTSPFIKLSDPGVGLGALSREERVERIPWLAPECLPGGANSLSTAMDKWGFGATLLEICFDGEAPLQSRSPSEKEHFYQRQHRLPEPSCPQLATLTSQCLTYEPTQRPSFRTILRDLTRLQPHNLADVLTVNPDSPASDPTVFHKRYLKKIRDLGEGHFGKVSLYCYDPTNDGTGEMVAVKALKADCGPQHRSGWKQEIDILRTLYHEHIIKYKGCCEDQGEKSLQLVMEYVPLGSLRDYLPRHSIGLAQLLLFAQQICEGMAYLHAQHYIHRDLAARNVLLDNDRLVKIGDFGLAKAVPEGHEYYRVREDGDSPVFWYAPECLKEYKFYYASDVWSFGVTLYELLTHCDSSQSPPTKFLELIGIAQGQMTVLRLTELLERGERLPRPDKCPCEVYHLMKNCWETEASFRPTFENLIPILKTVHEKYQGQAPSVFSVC

| Compound | JAK 1 (pKi) (JAK1) | Tyk 2 (pKi) (Tyk2) | concentration at which recovery of IL-22 suppressed Filaggrin expression was observed [1] [µM] | Solubility at PH 7.4 (μmol) (Aqueous Solubility Assay) | Solubility in PEG400 (mg/mL) [2] | Solubility in Diisopropyl adipate (mg/mL) [2] | Solubility in MCT (mg/mL) [2] | Solubility in Propylene glycol (mg/mL) [2] | Ki (JAK1; read-out: JAK 1 (pKi) (converted)) [nM] | Ki (Tyk2; read-out: Tyk 2 (pKi) (converted)) [nM] | solubility at 4 h (physchem; oil or lipid, Solubility in MCT (mg/mL)) [µg/mL] | solubility at 4 h (physchem; organic solvent or mixture, Solubility in Diisopropyl adipate (mg/mL)) [µg/mL] | solubility at 4 h (physchem; organic solvent or mixture, Solubility in PEG400 (mg/mL)) [µg/mL] | solubility at 4 h (physchem; organic solvent or mixture, Solubility in Propylene glycol (mg/mL)) [µg/mL] |
| --- | --- | --- | --- | --- | --- | --- | --- | --- | --- | --- | --- | --- | --- | --- |
| CCS(=O)(=O)N1[C@@H]2CCC[C@H]1C[C@H](N(C)c1nc(Nc3cc(C)[nH]n3)cc(C3CCCO3)n1)C2 (stereo partly drawn) [Compound 8, N^2-((1R,3s,5S)-9-(ethylsulfonyl)-9-azabicyclo[3.3.1]nonan-3-yl)-N2-methyl-N4-(5-methyl-1H-pyrazol-3-yl)-6-(tetrahydrofuran-2-yl)pyrimidine-2,4-diamine] | A (A represents a pKi value ≥10 (Ki≤0.1 nM)) | A (A represents a pKi value ≥10 (Ki≤0.1 nM)) | < 1 | C (C represents a value between 50 and 250) | A (A represents a value above 10) | B (B represents a value between 5 and 10) | C (C represents a value below 5) | A (A represents a value above 10) | – | – | – | – | – | – |
| COC(=O)N1[C@@H]2CCC[C@H]1C[C@H](N(C)c1nc(Nc3cc(C)[nH]n3)cc(O[C@@H]3CCOC3)n1)C2 [Compound 23] | – | – | < 1 | – | – | – | – | – | 0.1 to 1 | 0.1 to 1 | 5000 to 10000 (≈ 10.6 to 21.2 mM) | > 10000 | 5000 to 10000 (≈ 10.6 to 21.2 mM) | > 10000 |
| CCS(=O)(=O)N1[C@@H]2CCC[C@H]1C[C@H](N(C)c1nc(COC3COC3)c(F)c(Nc3cc(C)[nH]n3)n1)C2 [Compound 41, N2-((1R,3s,5S)-9-(ethylsulfonyl)-9-azabicyclo[3.3.1]nonan-3-yl)-5-fluoro-N2-methyl-N4-(5-methyl-1H-pyrazol-3-yl)-6-((oxetan-3-yloxy)methyl)pyrimidine-2,4-diamine] | A (A represents a pKi value ≥10 (Ki≤0.1 nM)) | A (A represents a pKi value ≥10 (Ki≤0.1 nM)) | < 1 | D (D represents a value between 10 and 50) | B (B represents a value between 5 and 10) | A (A represents a value above 10) | C (C represents a value below 5) | A (A represents a value above 10) | – | – | – | – | – | – |
| CCS(=O)(=O)N1[C@@H]2CCC[C@H]1C[C@H](N(C)c1nc(CO[C@H]3CCOC3)c(F)c(Nc3cc(C)[nH]n3)n1)C2 [Compound 42, N2-((1R,3s,5S)-9-(ethylsulfonyl)-9-azabicyclo[3.3.1]nonan-3-yl)-5-fluoro-N2-methyl-N4-(5-methyl-1H-pyrazol-3-yl)-6-((((S)-tetrahydrofuran-3-yl)oxy)methyl)pyrimidine-2,4-diamine] | B (B represents a pKi value between 9 and 10 (Ki between 1 nM and 0.1 nM)) | A (A represents a pKi value ≥10 (Ki≤0.1 nM)) | < 1 | B (B represents a value between 250 and 500) | A (A represents a value above 10) | A (A represents a value above 10) | C (C represents a value below 5) | A (A represents a value above 10) | – | – | – | – | – | – |
| CCS(=O)(=O)N1[C@@H]2CCC[C@H]1C[C@H](N(C)c1nc(CO[C@@H]3CCOC3)c(F)c(Nc3cc(C)[nH]n3)n1)C2 [Compound 43, N2-((1R,3s,5S)-9-(ethylsulfonyl)-9-azabicyclo[3.3.1]nonan-3-yl)-5-fluoro-N2-methyl-N4-(5-methyl-1H-pyrazol-3-yl)-6-((((R)-tetrahydrofuran-3-yl)oxy)methyl)pyrimidine-2,4-diamine] | B (B represents a pKi value between 9 and 10 (Ki between 1 nM and 0.1 nM)) | A (A represents a pKi value ≥10 (Ki≤0.1 nM)) | < 1 | B (B represents a value between 250 and 500) | A (A represents a value above 10) | A (A represents a value above 10) | C (C represents a value below 5) | A (A represents a value above 10) | – | – | – | – | – | – |
